According to patent publication US20150087627A1, “COMBINATION OF KINASE INHIBITORS AND USES THEREOF” (Intellikine LLC, priority 2011, published 2015):

Columns and labels:
Type in all cases: biochemical
PI3K α (p110α/p85α) = molecular target: T1, PI3K α (p110α/p85α) (Homo sapiens, UniProt P42336); assay: PI 3-Kinase (human) HTRF assay, PI3K α; details: read-out: PI3K α IC50
T1 construct: purchased Upstate / Millipore Corporation

PI3K β (p110β/p85α) = molecular target: T2, PI3K β (p110β/p85α) (Homo sapiens, UniProt P42338); assay: PI 3-Kinase (human) HTRF assay, PI3K β; details: read-out: PI3K β IC50
T2 construct: purchased Upstate / Millipore Corporation

PI3K γ (p110γ) = molecular target: T3, PI3K γ (p110γ) (Homo sapiens, UniProt P48736); assay: PI 3-Kinase (human) HTRF assay, PI3K γ; details: read-out: PI3K γ IC50
T3 construct: purchased Upstate / Millipore Corporation

PI3K δ = molecular target: T4, PI3K δ (Homo sapiens, UniProt O00329); assay: PI 3-Kinase (human) HTRF assay, PI3K δ; details: read-out: PI3K δ IC50
T4 construct: purchased Upstate / Millipore Corporation
T4 sequence (O00329 whole entry): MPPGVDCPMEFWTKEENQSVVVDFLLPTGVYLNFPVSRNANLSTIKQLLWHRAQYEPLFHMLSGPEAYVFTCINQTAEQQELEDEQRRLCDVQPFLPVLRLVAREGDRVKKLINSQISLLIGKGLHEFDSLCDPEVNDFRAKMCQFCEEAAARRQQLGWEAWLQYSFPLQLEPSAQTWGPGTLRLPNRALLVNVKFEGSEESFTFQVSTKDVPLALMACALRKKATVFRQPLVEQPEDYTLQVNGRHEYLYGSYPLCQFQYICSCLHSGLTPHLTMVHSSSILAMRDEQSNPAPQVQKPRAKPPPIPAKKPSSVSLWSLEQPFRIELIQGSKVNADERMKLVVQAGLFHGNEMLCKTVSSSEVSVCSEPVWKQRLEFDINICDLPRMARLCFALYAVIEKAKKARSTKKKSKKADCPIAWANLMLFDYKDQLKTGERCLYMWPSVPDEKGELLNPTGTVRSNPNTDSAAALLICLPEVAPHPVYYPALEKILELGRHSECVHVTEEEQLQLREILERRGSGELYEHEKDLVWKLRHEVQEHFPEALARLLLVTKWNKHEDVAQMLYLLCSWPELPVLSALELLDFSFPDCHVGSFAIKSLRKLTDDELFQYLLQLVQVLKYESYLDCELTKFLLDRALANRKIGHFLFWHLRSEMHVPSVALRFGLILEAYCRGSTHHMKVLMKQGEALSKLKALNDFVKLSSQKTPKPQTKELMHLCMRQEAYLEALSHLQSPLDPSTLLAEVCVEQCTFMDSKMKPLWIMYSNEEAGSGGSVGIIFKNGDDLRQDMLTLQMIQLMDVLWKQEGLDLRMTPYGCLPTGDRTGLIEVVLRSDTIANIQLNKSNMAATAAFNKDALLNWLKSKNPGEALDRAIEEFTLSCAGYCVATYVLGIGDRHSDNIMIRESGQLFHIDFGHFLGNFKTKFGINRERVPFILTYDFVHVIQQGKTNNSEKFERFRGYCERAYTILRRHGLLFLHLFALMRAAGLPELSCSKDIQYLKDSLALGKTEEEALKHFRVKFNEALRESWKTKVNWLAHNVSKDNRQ
T4 sequence (P27986 whole entry partner): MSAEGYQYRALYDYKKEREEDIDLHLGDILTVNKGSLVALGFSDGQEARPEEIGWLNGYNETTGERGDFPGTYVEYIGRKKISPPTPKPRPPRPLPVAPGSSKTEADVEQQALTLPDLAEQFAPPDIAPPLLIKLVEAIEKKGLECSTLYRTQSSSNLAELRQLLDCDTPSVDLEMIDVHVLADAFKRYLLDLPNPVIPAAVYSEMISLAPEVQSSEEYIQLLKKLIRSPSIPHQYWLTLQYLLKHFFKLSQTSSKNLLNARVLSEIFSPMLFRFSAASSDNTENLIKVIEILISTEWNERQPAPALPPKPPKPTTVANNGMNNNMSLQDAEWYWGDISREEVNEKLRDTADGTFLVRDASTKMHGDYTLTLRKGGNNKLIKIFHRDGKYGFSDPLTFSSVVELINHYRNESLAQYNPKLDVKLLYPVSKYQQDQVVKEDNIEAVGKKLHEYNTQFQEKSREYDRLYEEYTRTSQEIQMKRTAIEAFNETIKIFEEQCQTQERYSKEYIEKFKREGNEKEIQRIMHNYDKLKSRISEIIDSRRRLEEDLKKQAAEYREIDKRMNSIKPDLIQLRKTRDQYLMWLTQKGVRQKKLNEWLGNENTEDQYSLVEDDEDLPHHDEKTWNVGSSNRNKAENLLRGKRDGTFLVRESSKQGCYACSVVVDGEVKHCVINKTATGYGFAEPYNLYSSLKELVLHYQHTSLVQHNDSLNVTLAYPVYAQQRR

T1 sequence (P42336 whole entry): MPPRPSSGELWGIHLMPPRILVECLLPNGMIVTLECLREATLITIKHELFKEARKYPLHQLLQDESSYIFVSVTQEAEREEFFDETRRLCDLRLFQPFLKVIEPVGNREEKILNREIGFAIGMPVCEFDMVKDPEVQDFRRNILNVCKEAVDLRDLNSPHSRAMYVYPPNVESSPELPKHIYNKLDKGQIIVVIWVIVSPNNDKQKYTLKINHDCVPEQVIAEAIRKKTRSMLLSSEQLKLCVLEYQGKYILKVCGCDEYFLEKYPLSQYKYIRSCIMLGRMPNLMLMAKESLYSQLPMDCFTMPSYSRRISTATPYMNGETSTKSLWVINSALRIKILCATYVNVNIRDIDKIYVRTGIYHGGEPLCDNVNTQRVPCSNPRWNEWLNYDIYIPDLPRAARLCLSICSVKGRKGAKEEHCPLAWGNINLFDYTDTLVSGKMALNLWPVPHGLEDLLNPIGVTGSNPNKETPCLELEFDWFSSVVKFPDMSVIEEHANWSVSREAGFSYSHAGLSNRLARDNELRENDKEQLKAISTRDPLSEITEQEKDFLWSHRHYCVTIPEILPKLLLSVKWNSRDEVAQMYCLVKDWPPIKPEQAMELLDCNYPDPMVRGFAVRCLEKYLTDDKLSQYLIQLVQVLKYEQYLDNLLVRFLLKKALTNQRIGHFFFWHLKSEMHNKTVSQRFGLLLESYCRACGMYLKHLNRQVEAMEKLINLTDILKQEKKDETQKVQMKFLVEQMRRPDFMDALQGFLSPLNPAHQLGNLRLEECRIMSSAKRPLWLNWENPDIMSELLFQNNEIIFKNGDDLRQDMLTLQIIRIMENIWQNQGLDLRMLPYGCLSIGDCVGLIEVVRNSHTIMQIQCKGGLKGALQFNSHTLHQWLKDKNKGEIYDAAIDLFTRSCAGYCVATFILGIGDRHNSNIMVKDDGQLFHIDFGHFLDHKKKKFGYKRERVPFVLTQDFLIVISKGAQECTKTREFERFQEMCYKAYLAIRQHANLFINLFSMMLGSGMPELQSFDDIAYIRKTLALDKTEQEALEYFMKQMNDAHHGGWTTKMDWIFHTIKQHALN
T1 sequence (P27986 whole entry partner): as the sequence (P27986 whole entry partner) above
T2 sequence (P42338 whole entry): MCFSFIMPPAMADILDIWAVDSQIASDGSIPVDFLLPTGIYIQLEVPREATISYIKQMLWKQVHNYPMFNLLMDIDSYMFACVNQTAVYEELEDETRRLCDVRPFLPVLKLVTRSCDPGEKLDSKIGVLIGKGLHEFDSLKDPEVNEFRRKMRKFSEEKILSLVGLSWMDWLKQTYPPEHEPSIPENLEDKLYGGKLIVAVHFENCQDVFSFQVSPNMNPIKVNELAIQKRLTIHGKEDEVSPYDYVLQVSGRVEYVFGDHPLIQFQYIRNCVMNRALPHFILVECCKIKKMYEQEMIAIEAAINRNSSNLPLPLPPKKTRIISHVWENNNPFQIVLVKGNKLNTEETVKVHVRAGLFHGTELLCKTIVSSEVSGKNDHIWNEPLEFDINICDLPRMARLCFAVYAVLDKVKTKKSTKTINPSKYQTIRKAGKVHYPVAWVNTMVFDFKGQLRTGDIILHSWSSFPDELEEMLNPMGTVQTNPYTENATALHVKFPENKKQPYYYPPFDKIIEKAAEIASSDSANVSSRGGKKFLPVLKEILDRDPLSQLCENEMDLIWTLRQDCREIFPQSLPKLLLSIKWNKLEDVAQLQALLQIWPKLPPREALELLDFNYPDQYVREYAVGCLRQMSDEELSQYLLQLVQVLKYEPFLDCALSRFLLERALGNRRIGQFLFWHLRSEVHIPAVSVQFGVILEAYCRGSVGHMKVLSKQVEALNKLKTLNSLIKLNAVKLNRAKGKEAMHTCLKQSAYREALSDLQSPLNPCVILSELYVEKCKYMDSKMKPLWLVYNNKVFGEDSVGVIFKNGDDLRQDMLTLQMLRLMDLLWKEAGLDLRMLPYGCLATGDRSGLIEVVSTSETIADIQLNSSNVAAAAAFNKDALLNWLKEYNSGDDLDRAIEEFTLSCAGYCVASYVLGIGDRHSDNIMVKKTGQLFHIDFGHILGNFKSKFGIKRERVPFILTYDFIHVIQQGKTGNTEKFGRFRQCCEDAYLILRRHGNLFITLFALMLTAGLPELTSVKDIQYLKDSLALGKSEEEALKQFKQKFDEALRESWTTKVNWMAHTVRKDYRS
T2 sequence (P27986 whole entry partner): as the sequence (P27986 whole entry partner) above
T3 sequence (P48736 whole entry): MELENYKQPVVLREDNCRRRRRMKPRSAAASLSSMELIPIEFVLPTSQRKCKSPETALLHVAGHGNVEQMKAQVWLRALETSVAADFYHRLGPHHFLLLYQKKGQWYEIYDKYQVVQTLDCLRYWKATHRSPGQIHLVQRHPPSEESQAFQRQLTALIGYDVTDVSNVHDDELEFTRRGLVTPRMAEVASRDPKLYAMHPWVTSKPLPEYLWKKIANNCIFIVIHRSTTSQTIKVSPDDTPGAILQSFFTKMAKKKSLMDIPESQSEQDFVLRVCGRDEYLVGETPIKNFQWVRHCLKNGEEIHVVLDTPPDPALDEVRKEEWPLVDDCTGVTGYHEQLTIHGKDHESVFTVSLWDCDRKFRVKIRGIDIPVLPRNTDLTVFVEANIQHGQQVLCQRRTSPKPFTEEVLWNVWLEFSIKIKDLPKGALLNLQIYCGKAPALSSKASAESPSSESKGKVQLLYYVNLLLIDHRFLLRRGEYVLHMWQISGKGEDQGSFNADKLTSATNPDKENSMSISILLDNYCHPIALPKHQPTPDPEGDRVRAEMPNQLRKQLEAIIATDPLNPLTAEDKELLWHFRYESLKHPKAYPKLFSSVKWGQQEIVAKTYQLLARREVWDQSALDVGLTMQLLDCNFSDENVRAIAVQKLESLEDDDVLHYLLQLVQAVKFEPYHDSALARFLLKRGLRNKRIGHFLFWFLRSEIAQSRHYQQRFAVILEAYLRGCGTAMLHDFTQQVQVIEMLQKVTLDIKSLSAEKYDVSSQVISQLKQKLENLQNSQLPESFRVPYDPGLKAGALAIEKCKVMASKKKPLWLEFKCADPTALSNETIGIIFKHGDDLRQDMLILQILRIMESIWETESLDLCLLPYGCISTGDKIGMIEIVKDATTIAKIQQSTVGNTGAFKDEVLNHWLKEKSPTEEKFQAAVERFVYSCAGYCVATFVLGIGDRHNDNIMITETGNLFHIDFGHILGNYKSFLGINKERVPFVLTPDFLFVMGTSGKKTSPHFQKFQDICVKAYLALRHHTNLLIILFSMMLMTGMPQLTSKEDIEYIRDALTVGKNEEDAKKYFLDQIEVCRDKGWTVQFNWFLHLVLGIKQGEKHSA

Compound | IC50 (PI3K α (p110α/p85α)) [µM] | IC50 (PI3K β (p110β/p85α)) [µM] | IC50 (PI3K γ (p110γ)) [µM] | IC50 (PI3K δ) [µM]
Nc1nc2cc(-c3ccc4ncc(N5CC(n6ccnc6)C5)nc4c3)ccc2o1 [Compound 319] | < 0.1 | < 1 | < 1 | < 10
Cc1cn(C2CCN(c3cnc4ccc(-c5ccc6oc(N)nc6c5)cc4n3)CC2)cn1 [Compound 338] | < 0.1 | < 10 | < 10 | < 10
Nc1nc2cc(-c3ccc4ncc(C(=O)N5CC5)n4c3)ccc2o1 [Compound 340] | < 1 | > 10 | < 1 | > 10
Cc1nccn1C1CCN(c2cnc3ccc(-c4ccc5oc(N)nc5c4)cc3n2)CC1 [Compound 344] | < 0.1 | < 10 | < 10 | < 1
Nc1nc2cc(-c3ccn4ncc(C(=O)N5CCOCC5)c4c3)ccc2o1 [Compound 347] | < 1 | < 10 | < 1 | > 10
C[C@@H]1CN(C2CN(c3cnc4ccc(-c5ccc6oc(N)nc6c5)cc4n3)C2)CCN1 [Compound 355] | < 0.1 | < 10 | < 10 | < 1
Nc1nc2cc(-c3ccn4ncc(-c5ccncc5)c4c3)ccc2o1 [Compound 356] | < 0.1 | < 0.1 | < 0.1 | < 0.1
Nc1nc2cc(-c3ccc4ncc(C(=O)N5CCOCC5)n4c3)cc(Cl)c2o1 [Compound 359] | < 0.1 | < 1 | < 0.1 | < 10
Nc1nc2cc(-c3ccc4ncc(N5CC(N6CCOCC6)C5)nc4c3)cc(F)c2o1 [Compound 361] | < 0.1 | < 1 | < 1 | < 10
C[C@H]1CN(c2cnc3ccc(-c4cccc5c(N)noc45)cc3n2)CCN1 [Compound 363] | > 10 | > 10 | > 10 | > 10
Cc1cc(-c2ccc3ncc(C(=O)N4CCOCC4)n3c2)cc2nc(N)oc12 [Compound 364] | < 1 | < 10 | < 1 | > 10
Cc1cc(-c2ccc3ncc(N4CC(N5CCOCC5)C4)nc3c2)cc2nc(N)oc12 [Compound 365] | < 10 | < 10 | < 10 | < 10
CN(C)C1CN(c2cnc3ccc(-c4ccc5oc(N)nc5c4)cc3n2)C1 [Compound 366] | < 0.1 | < 10 | < 10 | > 10
Nc1nc2cc(-c3ccc4ncc(N5CC(N)C5)nc4c3)ccc2o1 [Compound 367] | < 1 | < 1 | < 1 | < 10
Cc1cc(-c2ccc3oc(N)nc3c2)cc2c(C(=O)N3CCCC3)cnn12 [Compound 368] | < 0.1 | < 10 | < 1 | < 1
Cc1c(-c2ccc3ncc(C(=O)N4CCOCC4)n3c2)ccc2oc(N)nc12 [Compound 369] | > 10 | > 10 | > 10 | > 10

Compound | IC50 (PI3K α (p110α/p85α)) [µM] | IC50 (PI3K β (p110β/p85α)) [µM] | IC50 (PI3K γ (p110γ)) [µM] | IC50 (PI3K δ) [µM]
Nc1nc2cc(-c3ccc4ncc(N5CC(N6CCOCC6)C5)nc4c3)c(Cl)cc2o1 [Compound 371] | < 1 | < 10 | > 10 | > 10
Cc1c(-c2ccc3oc(N)nc3c2)ccc2ncc(N3CCN[C@@H](C)C3)nc12 [Compound 374] | < 1 | < 0.1 | > 10 | < 10
Nc1nc2cc(-c3ccc4ncc(N5CC[C@H](N6CCOCC6)C5)nc4c3)ccc2o1 [Compound 375] | < 1 | < 10 | < 1 | < 1
Cc1c(-c2ccc3oc(N)nc3c2)ccc2ncc(N3CC(N4CCOCC4)C3)nc12 [Compound 383] | < 1 | > 10 | > 10 | > 10
CN1CCC(c2cnc3ccc(-c4ccc5oc(N)nc5c4)cc3n2)CC1 [Compound 385] | < 0.1 | < 10 | > 10 | > 10
CCN1CCN(c2cnc3ccc(-c4ccc5oc(N)nc5c4)cc3n2)C(=O)C1 [Compound 391] | < 10 | > 10 | > 10 | > 10
Nc1nc2cc(-c3ccc4ncc(N5CCN(CC6CC6)CC5=O)nc4c3)ccc2o1 [Compound 393] | < 10 | > 10 | > 10 | > 10
Nc1nc2cc(-c3ccc4ncc(N5CCn6cncc6C5)nc4c3)ccc2o1 [Compound 394] | < 0.1 | < 0.1 | < 0.1 | < 1
C[C@H]1CN(c2cnc3ccc(-c4ccc5oc(N)nc5c4)cc3c2)CCN1 [Compound 396] | < 0.1 | < 0.1 | < 10 | > 10
Nc1nc2cc(-c3ccn4ncc(C(=O)N5CCC(N6CCOCC6)CC5)c4c3)ccc2o1 [Compound 398] | < 1 | < 10 | < 10 | < 10
C[C@H]1CN(c2cnc3scc(-c4ccc5oc(N)nc5c4)c3c2)CCN1 [Compound 399] | > 10 | > 10 | > 10 | > 10
C[C@H]1CN(c2nc3cc(-c4ccc5oc(N)nc5c4)ccc3nc2N)CCN1 [Compound 403] | < 10 | > 10 | > 10 | > 10
O=C(c1cnc2ccc(-c3ccc4oc(Nc5ccccc5)nc4c3)cn12)N1CCOCC1 [Compound 407] | > 10 | < 10 | > 10 | > 10
Nc1ncc(-c2ccc3ncc(C(=O)N4CCOCC4)n3c2)cc1C(F)(F)F [Compound 410] | < 10 | > 10 | > 10 | > 10
CC(Oc1nc(-c2ccc3ncc(C(=O)N4CCOCC4)n3c2)cnc1N)C(F)(F)F (centres unmarked) [Compound 411] | < 0.1 | < 10 | < 1 | < 10

Now from value to compound:

IC50 (PI3K α (p110α/p85α)) [µM] | IC50 (PI3K β (p110β/p85α)) [µM] | IC50 (PI3K γ (p110γ)) [µM] | IC50 (PI3K δ) [µM] | Compound
< 1 | < 10 | < 0.1 | < 1 | CC(=O)Nc1nc(C)c(-c2ccc3oc(N)nc3c2)s1 [Compound 312]
< 1 | < 10 | < 10 | < 10 | Nc1nc2cc(-c3ccc4ncc(N5CC(N6CCCC6)C5)nc4c3)ccc2o1 [Compound 314]
< 1 | < 10 | < 10 | > 10 | Nc1nc2cc(-c3ccc4ncc(C(=O)N(CCO)CCO)n4c3)ccc2o1 [Compound 316]
> 10 | > 10 | > 10 | > 10 | Nc1nc2cc(-c3ccc4ncn(C(=O)N5CCOCC5)c4c3)ccc2o1 [Compound 317]
< 0.1 | < 10 | < 10 | < 10 | Nc1nc2cc(-c3ccc4ncc(N5CC(N6CCS(=O)(=O)CC6)C5)nc4c3)ccc2o1 [Compound 334]
< 0.1 | > 10 | < 1 | > 10 | Nc1nc2cc(-c3ccc4ncc(N5CCC(n6cccn6)CC5)nc4c3)ccc2o1 [Compound 337]
< 0.1 | < 1 | < 1 | < 1 | Cc1cn(C2CN(c3cnc4ccc(-c5ccc6oc(N)nc6c5)cc4n3)C2)cn1 [Compound 339]
< 1 | > 10 | < 10 | < 10 | Nc1nc2cc(-c3ccc4ncc(N5CC(N6CCC(O)CC6)C5)nc4c3)ccc2o1 [Compound 341]
< 10 | < 1 | > 10 | > 10 | Cc1cc2oc(N)nc2cc1-c1ccc2ncc(N3CCN[C@@H](C)C3)nc2c1 [Compound 351]
< 0.1 | < 1 | < 0.1 | < 10 | Nc1nc2cc(-c3ccc4ncc(C(=O)N5CCOCC5)n4c3)cc(F)c2o1 [Compound 360]
> 10 | > 10 | > 10 | > 10 | Cc1c(-c2ccc3ncc(N4CC(N5CCOCC5)C4)nc3c2)ccc2oc(N)nc12 [Compound 362]
< 1 | < 10 | < 10 | > 10 | CN1CCN(C(=O)c2cnn3ccc(-c4ccc5oc(N)nc5c4)cc23)CC1 [Compound 380]
< 1 | > 10 | < 10 | > 10 | Nc1nc2cc(-c3ccc4ncc(N5CCNCC5=O)nc4c3)ccc2o1 [Compound 389]
> 10 | > 10 | > 10 | > 10 | CC(C)N1CCN(c2cnc3ccc(-c4ccc5oc(N)nc5c4)cc3n2)C(=O)C1 [Compound 392]
< 0.1 | > 10 | < 0.1 | > 10 | Nc1nc2cc(-c3ccc4ncc(N5CCN(CC(F)(F)F)CC5)nc4c3)ccc2o1 [Compound 395]
< 0.1 | < 1 | < 0.1 | < 1 | Cc1cc(-c2ccc3oc(N)nc3c2)cc2c(-c3ccncc3)cnn12 [Compound 397]
> 10 | > 10 | < 10 | > 10 | CC(=O)Nc1cc2ccc(-c3cc(F)c4oc(N)nc4c3)cn2n1 [Compound 401]
> 10 | > 10 | > 10 | > 10 | CN1CCC(Nc2nc3cc(-c4ccc5ncc(C(=O)N6CCOCC6)n5c4)ccc3o2)CC1 [Compound 408]
< 10 | > 10 | > 10 | > 10 | O=C(c1cnc2ccc(-c3ccc4oc(NC5CC5)nc4c3)cn12)N1CCOCC1 [Compound 409]
